Test results as given in patent US8680272B2, “3-arylethynyl substituted quinazolinone compounds” (Council of Scientific & Industrial Research, priority 2011, dated 2014).

What was measured:
HL-60(TB) = assay: Anticancer activity, SRB assay, leukemia cell line HL-60(TB); format: cell-based; settings: Homo sapiens; Leukemia HL-60(TB); 48 h continuous drug exposure; read-out: Growth Inhibition GI50
Description: (§1) Some of biological activity studies were carried out at the National Cancer Institute (NCI), Maryland, USA.
(§2) The compounds were evaluated for anticancer activity against sixty human cancer cells derived from nine cancer types (leukemia cell line, non-small-cell lung cell line, colon cell line, CNS cell line, melanoma cell line, ovarian cell line, prostate cell line, renal cell line and breast cancer cell line) as shown in Table 1. For each compound, dose response curves for each cell line were measured at a minimum of five concentrations at 10 fold dilutions. A protocol of 48 h continuous drug exposure was used and a sulforhodamine B (SRB) protein assay was used to estimate cell viability or growth.

MOLT-4 = assay: Anticancer activity, SRB assay, leukemia cell line MOLT-4; format: cell-based; settings: Homo sapiens; Leukemia MOLT-4; 48 h continuous drug exposure; read-out: Growth Inhibition GI50
Description: as §1, §2

HOP-62 = assay: Anticancer activity, SRB assay, non-small lung cell line HOP-62; format: cell-based, human; settings: Non-small lung HOP-62; 48 h continuous drug exposure; —^b means GI50 values not attained at the concentrations used
Description: as §1, §2

HOP-92 = assay: Anticancer activity, SRB assay, non-small lung cell line HOP-92; format: cell-based, human; settings: Non-small lung HOP-92; 48 h continuous drug exposure; —^b means GI50 values not attained at the concentrations used
Description: as §1, §2

NCI-H322M = assay: Anticancer activity, SRB assay, non-small lung cell line NCI-H322M; format: cell-based, human; settings: Non-small lung NCl-H322M; 48 h continuous drug exposure; —^b means GI50 values not attained at the concentrations used
Description: as §1, §2

HT29 = assay: Anticancer activity, SRB assay, colon cell line HT29; format: cell-based; settings: Homo sapiens, HT-29, 48 h continuous drug exposure, read-out: Growth Inhibition GI50
Description: as §1, §2

KM12 = assay: Anticancer activity, SRB assay, colon cell line KM12; format: cell-based; settings: Homo sapiens, 48 h continuous drug exposure, read-out: Growth Inhibition GI50
Description: as §1, §2

SF-268 = assay: Anticancer activity, SRB assay, CNS cell line SF-268; format: cell-based, human; settings: CNS SF-268; 48 h continuous drug exposure; —^b means GI50 values not attained at the concentrations used
Description: as §1, §2

SF-295 = assay: Anticancer activity, SRB assay, CNS cell line SF-295; format: cell-based, human; settings: CNS SF-295; 48 h continuous drug exposure; —^b means GI50 values not attained at the concentrations used
Description: as §1, §2

SNB-75 = assay: Anticancer activity, SRB assay, CNS cell line SNB-75; format: cell-based, human; settings: CNS SNB-75; 48 h continuous drug exposure; —^b means GI50 values not attained at the concentrations used
Description: as §1, §2

U251 = assay: Anticancer activity, SRB assay, CNS cell line U251; format: cell-based; settings: Homo sapiens, U-251, 48 h continuous drug exposure, read-out: Growth Inhibition GI50
Description: as §1, §2

OVCAR-5 = assay: Anticancer activity, SRB assay, ovarian cell line OVCAR-5; format: cell-based, human; settings: Ovarian OVCAR-5; 48 h continuous drug exposure; —^b means GI50 values not attained at the concentrations used
Description: as §1, §2

SK-OV-3 = assay: Anticancer activity, SRB assay, ovarian cell line SK-OV-3; format: cell-based, human; settings: Ovarian SK-OV-3; 48 h continuous drug exposure; —^b means GI50 values not attained at the concentrations used
Description: as §1, §2

A498 = assay: Anticancer activity, SRB assay, renal cell line A498; format: cell-based, human; settings: 48 h continuous drug exposure, —^b means GI50 values not attained at the concentrations used
Description: as §1, §2

UO-31 = assay: Anticancer activity, SRB assay, renal cell line UO-31; format: cell-based, human; settings: Renal UO-31; 48 h continuous drug exposure; —^b means GI50 values not attained at the concentrations used
Description: as §1, §2

MCF7 = assay: Anticancer activity, SRB assay, breast cell line MCF7; format: cell-based; settings: Homo sapiens, 48 h continuous drug exposure, read-out: Growth Inhibition GI50
Description: as §1, §2

MDA-MB-435 = assay: Anticancer activity, SRB assay, melanoma cell line MDA-MB-435; format: cell-based, human; settings: Melanoma MDA-MB-435; 48 h continuous drug exposure; —^b means GI50 values not attained at the concentrations used
Description: as §1, §2

SK-MEL-2 = assay: Anticancer activity, SRB assay, melanoma cell line SK-MEL-2; format: cell-based, human; settings: Melanoma SK-MEL-2; 48 h continuous drug exposure; —^b means GI50 values not attained at the concentrations used
Description: as §1, §2

UACC-62 = assay: Anticancer activity, SRB assay, melanoma cell line UACC-62; format: cell-based; settings: Homo sapiens; Melanoma UACC-62; 48 h continuous drug exposure; read-out: Growth Inhibition GI50
Description: as §1, §2

[1] = Anticancer activity, SRB assay, non-small cell lung panel; format: cell-based, human; settings: Homo sapiens; nine non-small cell lung cancer cell lines; exposure period of at least 48 h; read-out: GI50 (range over the panel)
Description: as §1, §2

[2] = system: nine non-small cell lung cancer cell lines (A549/ATCC, EKVX, HOP-62, HOP-92, NCI-H226, NCI-H23, NCI-H322M, NCI-H460 and NCI-H522); assay: as above; format: cell-based, human; settings: Non-small cell lung
Description: as §1, §2

[3] = system: six CNS cancer cell line (SF-268, SF-295, SF-539, SNB-19, SNB-75 and U251); assay: Anticancer activity, SRB assay, CNS panel; format: cell-based, human
Description: as §1, §2

[4] = system: seven ovarian cancer cell lines (IGROV1, OVCAR-3, OVCAR-4, OVCAR-5, OVCAR-8, NCI/ADR-RES and SK-OV-3); assay: Anticancer activity, SRB assay, ovarian panel; format: cell-based, human
Description: as §1, §2

[5] = system: six breast cancer cell line (MCF-7, MDA-MB-231/ATCC, HS 578T, TD-47D, MDA-MB-468 and BT-549); assay: Anticancer activity, SRB assay, breast panel; format: cell-based, human
Description: as §1, §2

[6] = system: sixty human cancer cell lines derived from nine cancer types; assay: Anticancer activity against sixty human cancer cell lines; format: cell-based
Description: as §1, §2

Structure (SMILES): COc1ccc2cc(C#Cc3ccc(-n4c(/C=C/c5cc(OC)c(OC)c(OC)c5)nc5ccccc5c4=O)c(C)c3)ccc2c1 [Compound 6l, (E)-3-(4-((6-Methoxynaphthalen-2-yl)ethynyl)-2-methylphenyl)-2-(3,4,5-trimethoxystyryl)quinazolin-4(3H)-one]
- GI50 (HL-60(TB)): 0.686 µM
- GI50 (MOLT-4): 4.66 µM
- Growth Inhibition GI50 (HOP-62): —^b
- Growth Inhibition GI50 (HOP-92): —^b
- Growth Inhibition GI50 (NCI-H322M): —^b
- GI50 (HT29): 3.41 µM
- GI50 (KM12): 4.3 µM
- Growth Inhibition GI50 (SF-268): —^b
- Growth Inhibition GI50 (SF-295): —^b
- Growth Inhibition GI50 (SNB-75): —^b
- GI50 (U251): 7.4 µM
- Growth Inhibition GI50 (OVCAR-5): —^b
- Growth Inhibition GI50 (SK-OV-3): —^b
- Growth Inhibition GI50 (A498): —^b
- Growth Inhibition GI50 (UO-31): —^b
- GI50 (MCF7): 63.8 µM
- Growth Inhibition GI50 (MDA-MB-435): —^b
- Growth Inhibition GI50 (SK-MEL-2): —^b
- GI50 (UACC-62): 2.19 µM
- GI50 [1]: 2.48 to 40.5 µM
- mean graph midpoint values (MG_MID) of log10 TGI (Log10TGI50) ([2]; log value of concentration of the compound resulting in total inhibition of net cell growth): >−4.00
- mean graph midpoint values (MG_MID) of Log10LC50 ([2]; log value of the concentration of compounds leading to 50% net cell death): >−4.00
- mean graph midpoint values (MG_MID) of Log10GI50 ([2]; log values of concentration in mol/L causing 50% inhibition of net cell growth): −4.32 mol/L
- mean graph midpoint values (MG_MID) of log10 TGI (Log10TGI50) ([3]; CNS, log value of concentration of the compound resulting in total inhibition of net cell growth): >−4.00
- mean graph midpoint values (MG_MID) of Log10LC50 ([3]; CNS, log value of the concentration of compounds leading to 50% net cell death): >−4.00
- mean graph midpoint values (MG_MID) of Log10GI50 ([3]; CNS, log values of concentration in mol/L causing 50% inhibition of net cell growth): −4.18 mol/L
- GI50 ([3]; Homo sapiens, six CNS cancer cell line, exposure period of at least 48 h, read-out: GI50 (range over the panel)): 7.4 µM
- GI50 ([4]; Homo sapiens, seven ovarian cancer cell lines, exposure period of at least 48 h, read-out: GI50 (range over the panel)): 19.3 µM
- mean graph midpoint values (MG_MID) of log10 TGI (Log10TGI50) ([4]; Ovarian, log value of concentration of the compound resulting in total inhibition of net cell growth): >−4.00
- mean graph midpoint values (MG_MID) of Log10LC50 ([4]; Ovarian, log value of the concentration of compounds leading to 50% net cell death): >−4.00
- mean graph midpoint values (MG_MID) of Log10GI50 ([4]; Ovarian, log values of concentration in mol/L causing 50% inhibition of net cell growth): −4.10 mol/L
- mean graph midpoint values (MG_MID) of log10 TGI (Log10TGI50) ([5]; Breast, log value of concentration of the compound resulting in total inhibition of net cell growth): >−4.00
- mean graph midpoint values (MG_MID) of Log10LC50 ([5]; Breast, log value of the concentration of compounds leading to 50% net cell death): >−4.00
- mean graph midpoint values (MG_MID) of Log10GI50 ([5]; Breast, log values of concentration in mol/L causing 50% inhibition of net cell growth): −4.51 mol/L
- GI50 ([5]; Homo sapiens, six breast cancer cell line, exposure period of at least 48 h, read-out: GI50 (range over the panel)): 3.8 to 63.8 µM
- in vitro anticancer activity (in words) [6]: exhibiting an in vitro anticancer activity
